# Assay: Study underlying Fig. 6: cumulative food intake after ip ghrelin and desacyl ghrelin, alone or simultaneously, freely fed rats, light phase
# Format: in vivo, SD rats
# Conditions: ghrelin 13 µg/kg ip plus vehicle
# Procedure: Male adult SD rats (Harlan-Winkelmann Co., Borchen, Germany) weighting 250 g were housed in groups of 4 rats/cage under conditions of controlled illumination (12:12 h light/dark cycle, lights on/off: 6:30 a.m./6:30 p.m.), humidity, and temperature (22 ± 2°C). Animals were fed with a standard rat diet (Altromin®, Lage, Germany) and tap water ad libitum. All animals were trained daily to be accustomed to the experimental conditions for 14 days before starting the experiments. During the handling phase, the back position was practiced to make animals familiar with receiving an ip injection.
# Rat desacyl ghrelin (0.5 mg/ml; Peptides International, Louisville, USA) or rat ghrelin (1 mg/ml) was dissolved in distilled water and stored at -20°C. Immediately before starting the experiments, peptides were diluted in vehicle solution consisting of sterile 0.15 M NaCl (Braun, Melsungen, Germany) to reach the final concentration of 13 µg (∼4 nmol) ghrelin/kg, and 64 µg (∼20 nmol) or 127 µg (∼40 nmol) desacyl ghrelin/kg body weight. Peptide solutions were kept on ice for the duration of the experiments. […]
# On the day of the experiment, freely fed animals were injected ip simultaneously (final volume: 0.5 ml) with vehicle plus vehicle (0.15 M NaCl + 0.15 M NaCl, n=13), ghrelin plus vehicle (13 µg/kg + 0.15 M NaCl, n=13), ghrelin (13 µg/kg) plus 64 µg/kg or 127 µg/kg desacyl ghrelin (n =13 in both groups), or vehicle plus 64 µg/kg desacyl ghrelin (n=13) and returned to single housing cages immediately after the injection. […] Food intake was determined by measuring the difference between the preweighed standard chow and the weight of chow at the end of the first 30 min, 1 h and 2 h food exposure.
# The cumulative food intake monitored at the end of the first 30 min, 1 h, and 2 h after peptide or vehicle injection was expressed as food intake (g)/body weight (kg) (Ruter et al. 2003). Data were expressed as mean ± SEM and analyzed by Kruskal-Wallis One Way ANOVA. Differences between groups were evaluated by the Student-Newman-Keuls method; p < 0.05 was considered significant.
substance,measurement,setting,value
n-octanoyl-ghrelin,cumulative food intake,"2h, vehicle plus vehicle 2.65 ± 0.93",7.71 ± 0.97 g/kg body weight
same,food intake,"first half hour, vehicle plus vehicle 1.49 ± 0.72",5.76 ± 0.68 g/kg body weight
same,cumulative food intake,"one hour, vehicle plus vehicle 1.49 ± 0.72",7.29 ± 0.92 g/kg

# Reference: patent EP2067481A1, “Therapeutic use of desacyl ghrelin” (Charité - Universitätsmedizin Berlin, priority 2007, dated 2009)
